# Laboratory results published in patent publication US20260318831A1 (University of Cincinnati, priority 2023, published 2026).
# Assays:
# Format in all cases: cell-based
# HeLa cells [1] = assay: Confocal imaging of PyQPMe uptake by endocytosis; settings: chloroquine 25 μM, 30 min; NH4Cl 50 mM
# Description: In some aspects, the probes of the present disclosure can be administered to living cells, either in vitro or in vivo. To take advantage of the absorption and emission spectra of PyQPMe, this probe was administered in high-resolution microscopy for living cells. The toxicity of PyQPMe was examined at first before characterizing its imaging properties. Cell Counting Kit-8 (CCK-8) was used to investigate the viability of HeLa cells stained with PyQPMe. […] Next, PyQPMe was characterized by Leica Stellaris Confocal Microscope in the LIGHTNING module for high-resolution imaging. […] The signal tended to be endolysosomes because endolysosomes have a low pH range from 4.7 to 6.3. […] Since low temperatures can inhibit endocytosis, experiments at a lower temperature were performed.
# (§1) Leica Stellaris 8 Confocal imaging. High-resolution images were acquired on a commercial Leica Stellaris 8 Confocal Microscope under LIGHTNING mode. Laser powers were set at 10% intensity for 405 nm and 640 nm channels. The objective was 63×/1.4. High-resolution images were captured from the randomly selected field of view and analyzed with Leica LAS X and ImageJ software. All the images were exported on the Auto scale of the Leica LAS X software. Cells were seeded on glassed-bottomed cell dishes (MatTek) for 24 hours. Cells stained with PyQPMe (20 nM, 10 min) were treated with Wortmannin (1 μM, 24 h), CCCP ([…], 24 h), rapamycin (0.5 μM, 24 h), chloroquine (25 μM, 30 min), and NH4Cl (50 mM, 30 min). All PCC values were analyzed in the CellProfiler.
# [2] = system: endolysosomes in HeLa cells; assay: Dynamics of PyQPMe-stained endolysosomes during autophagy
# Description: FIGS. 6A-6H depict the dynamics of PyQPMe-stained endolysosomes during autophagy. FIG. 6A. Confocal images of HeLa cells incubated with PyQPMe following treatment with or without CCCP for 24 h. FIG. 6B. Quantification of total endolysosomes and late endosomes/lysosomes in PyQPMe-stained HeLa cells with or without CCCP treatment. FIG. 6C. The ratio of the number of late endosomes/lysosomes to total endolysosomes in PyQPMe-stained HeLa cells treated with or without CCCP. FIG. 6D. Quantification of ratio of red to green intensity in PyQPMe-stained HeLa cells without CCCP treatment. FIG. 6E. Quantification of ratio of red to green intensity in PyQPMe-stained HeLa cells with CCCP treatment for 24 h. FIG. 6F. Confocal images of HeLa cells incubated with PyQPMe following treatment with or without rapamycin for 24 h. FIG. 6G. Quantification of total endolysosomes and late endosomes/lysosomes in PyQPMe-stained HeLa cells with or without rapamycin treatment. FIG. 6H. The ratio of the number of late endosomes/lysosomes to total endolysosomes in PyQPMe-stained HeLa cells treated with or without rapamycin. Data are given as M±SEM (n=10 independent samples from 10 cells for each statistical analysis); the statistical differences were analyzed by Student's t-test, p<0.05 is considered to statistical significant (**** p≤0.0001; ns p>0.05).
# Autophagy is a natural degradation process of cells that removes unnecessary or damaged biological macromolecules or organelles to maintain homeostasis. After autophagosomes engulf unnecessary components, both late endosomes and lysosomes can fuse with autophagosomes to degrade autophagosomal cargo by forming amphisomes and autolysosomes, respectively. To study the behavior of endolysosomes during autophagy, carbonyl [COMPOUND LEFT OUT] m-chlorophenyl hydrazone (CCCP), a common inducer for mitophagy (one type of autophagy), was exploited to induce autophagy in PyQPMe-stained cells. Cells were treated with 10 μM CCCP for 24 h prior to PyQPMe staining. […] As mentioned above (FIG. 2C), pH 5-6 is the cut-off point for the red to green fluorescence intensity ratio of PyQPMe, which perfectly matches the pH changes during conversion from early endosomes to late endosomes. […] Inversely, when the ratio is greater than 1, it represents the population of late endosomes/lysosomes (FIGS. 3D, 6D, 6E).
# Rapamycin, a classical autophagy inducer, activates autophagy by inhibiting mTOR protein activation. To investigate the effect of rapamycin on endolysosomes, we treated HeLa cells with 0.5 μM rapamycin for 24 h prior to PyQPMe staining. […] To track the dynamics of endolysosomes in classical autophagy, the total endolysosomes and late endosomes/lysosomes in rapamycin-treated cells were quantified. […] Meanwhile, similar to the CCCP-induced mitophagy (FIGS. 6A, 6C), the proportion of late endosomes/lysosomes to total endolysosomes remained the same (~54%) during classical autophagy process (FIG. 6H).
# as §1
# HeLa cells [3] = assay: Photobleaching comparison of LTR and PyQPMe; settings: continuous confocal laser at 100% power
# Description: FIGS. 4A-4G depict the characterization of imaging properties of PyQPMe-stained endolysosomes. FIG. 4A. Confocal image of PyQPMe-stained endolysosomes and fluorescence intensity profile (FIG. 4B) of the write line in FIG. 4A. FIG. 4C. Confocal image of PyQPMe-stained late endosomes/lysosomes and fluorescence intensity profile (FIG. 4D) of the write line in FIG. 4C. FIG. 4E. Confocal images of HeLa cells labeled with LTR and PyQPMe and 3D fluorescence intensity plots of rectangles of integration. FIG. 4F. Continuous imaging of HeLa cells labeled with LTR or PyQPMe at 100% laser intensity for photobleaching, and each scan time was 10 s, images were captured under a red channel. FIG. 4G. Normalized fluorescence intensity of LTR and PyQPMe in FIG. 4F.
# Resistance to photobleaching is a crucial property of probes that determines whether they can be used for long-term fluorescence tracking. To characterize this property, a photobleaching comparison study between LTR and PyQPMe was done in HeLa cells (FIG. 4F).
# Leica Stellaris 8 Confocal imaging. High-resolution images were acquired on a commercial Leica Stellaris 8 Confocal Microscope under LIGHTNING mode. Laser powers were set at 10% intensity for 405 nm and 640 nm channels. […] High-resolution images were captured from the randomly selected field of view and analyzed with Leica LAS X and ImageJ software. […] All PCC values were analyzed in the CellProfiler.
# [4] = system: endolysosomes in HeLa cells; assay: Dynamics of PyQPMe-stained endolysosomes (puncta counting); settings: wortmannin 1 μM, 24 h
# Description: FIGS. 5A-5H depict the characterization of dynamics of PyQPMe-stained endolysosomes. FIG. 5A. Confocal images of HeLa cells stained with PyQPMe following treatment with or without Wortmannin for 24 h. FIG. 5B. Schematic illustration of the effect of Wortmannin which inhibits the conversion from early endosomes into late endosomes. FIG. 5C. Quantification of total endolysosomes and late endosomes/lysosomes in PyQPMe-stained HeLa cells with or without Wortmannin treatment. FIG. 5D. The ratio of the number of late endosomes/lysosomes to total endolysosomes in PyQPMe-stained HeLa cells treated with or without Wortmannin. FIG. 5E. Confocal images of HeLa cells stained with PyQPMe for 10 min and 60 min. FIG. 5F. The mean red puncta fluorescence intensity of PyQPMe-stained HeLa cells for 10 min and 60 min incubation. FIG. 5G. Quantification of total endolysosomes and late endosomes/lysosomes in PyQPMe-stained HeLa cells for 10 min and 60 min. FIG. 5H. The ratio of the number of late endosomes/lysosomes to total endolysosomes in PyQPMe-stained HeLa cells for 10 min and 60 min. Data are given as M±SEM (n=10 independent samples from 10 cells for each statistical analysis); the statistical differences were analyzed by Student's t-test, p<0.05 is considered to statistical significant (** p≤0.01; *** p≤0.001; **** p≤0.0001; ns p>0.05).
# Because of the popularity of quantitative cell biology, it is important to design powerful tools that can digitize individual cells and subcellular organelles to elucidate biological problems in detail. With its great pH response, long-term photostability, and excellent signal-to-noise ratio for high-resolution imaging, PyQPMe was successfully used to track the dynamics of endolysosomes within cells by counting the number of puncta fluorescence signals in both green and red channels (FIG. 5A).
# Next, the effects of different incubation time on the endocytic pathway were tested.
# as §1
smiles,measurement,setting,value
"Cl.N [NH4Cl, reference compound]",effect of endocytic inhibitor on PyQPMe fluorescence,HeLa cells [1],significant reduction in fluorescence
CO[C@H]1C[C@@H]2CC[C@@H](C)[C@@](O)(O2)C(=O)C(=O)N2CCCC[C@H]2C(=O)O[C@H]([C@H](C)C[C@@H]2CC[C@@H](O)[C@H](OC)C2)CC(=O)[C@H](C)/C=C(\C)[C@@H](O)[C@@H](OC)C(=O)[C@H](C)C[C@H](C)/C=C/C=C/C=C/1C [rapamycin],fluorescent spots in both green and red channels,"[2]; rapamycin 0.5 μM, 24 h",more fluorescent spots
same,number of total endolysosomes and late endosomes/lysosomes,"[2]; rapamycin 0.5 μM, 24 h",significantly increased
same,proportion of late endosomes/lysosomes to total endolysosomes,"[2]; rapamycin 0.5 μM, 24 h (FIG. 6H)",~ 54%
"CN(C)CCNC(=O)CCc1ccc2n1[B-](F)(F)[N+]1=C(c3ccc[nH]3)C=CC1=C2 [LTR, reference compound]",fluorescence intensity on photobleaching,HeLa cells [3],disappeared rapidly after two scans
"COC[C@H]1OC(=O)c2coc3c2[C@@]1(C)C1=C(C3=O)[C@@H]2CCC(=O)[C@@]2(C)C[C@H]1OC(C)=O [wortmannin, reference compound]",number of endolysosomes vs untreated cells,[4],much higher than that in untreated cells
same,percentage of late endosomes/lysosomes in total endolysosomes vs untreated,[4],significantly decreased
"CCN(CC)CCCC(C)Nc1ccnc2cc(Cl)ccc12 (stereo not drawn) [chloroquine, reference compound]",effect of endocytic inhibitor on PyQPMe fluorescence,HeLa cells [1],significant reduction in fluorescence
N#CC(C#N)=NNc1cccc(Cl)c1 [CCCP],number of total endolysosomes and late endosomes/lysosomes vs controls,"[2]; CCCP 10 μM, 24 h (mitophagy)",significant increase
same,ratio of late endosomes/lysosomes to total endolysosomes,"[2]; CCCP 10 μM, 24 h, by counting (FIG. 6C)",~ 55%
same,ratio of late endosomes/lysosomes to total endolysosomes from red to green intensity,"[2]; CCCP 24 h (FIG. 6E), 52% without CCCP (FIG. 6D)",56%
same,acidity of early and late endosomes,"[2]; CCCP, distribution of red to green intensity ratio",both early and late endosomes became more acidic
